This passage reports IC50 results from PubChem BioAssay AID493002 (Sanford-Burnham Center for Chemical Genomics, 2010).

Usually IC50 stands for the point on the concentration scale where inhibition reaches its midpoint.

For the assay, the system named is S. cerevisiae tim23-1 mutant growth, luminescence. The assay is described as follows: tim23-1 mutant yeast growth inhibitors, dose response, luminescence, uHTS hits (AID 493002).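 Further: yeast grown roughly 22 hours at 25 °C before the luminescence read.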

Regarding `c1ccc2[nH]c(CSc3nc4ccccc4o3)nc2c1`, the IC50 was 12.3 µM.

As for `Cc1ccc2occ(C(=O)c3ccco3)c(=O)c2c1`, the IC50 is 9.16 µM.

For the compound `O=C(/C=C/c1ccco1)Nc1scc(-c2ccccc2)c1C(=O)O`, the IC50 was 13.6 µM.

As for `O=C(N/N=C/c1ccco1)c1cc2ccccc2o1`, the IC50 was 8.47 µM.

For the compound `O=C(NC(=O)c1ccccc1F)OCc1ccc(Cl)cc1Cl`, the IC50 was 11.9 µM.

On to `COC(=O)c1cccc(-c2ccc(C(c3c(C)[nH][nH]c3=O)c3c(C)[nH][nH]c3=O)o2)c1`, for which the IC50 was 15.1 µM.

For the compound `COc1ccc(C(C[N+](=O)[O-])c2c(-c3ccccc3)cc3ccccn23)cc1OC` (stereo not drawn), the IC50 was 12.7 µM.

Take `Nc1c(C(=O)Nc2ccc3c(c2)OCCO3)nnn1Cc1ccccc1Cl`: the IC50 was 12.4 µM.

For `O=C1c2ccccc2-c2n[nH]c3cccc1c23`, the IC50 was 6.31 µM.

`NC(=S)N/N=C/c1coc2ccc(Br)cc2c1=O`: the half-inhibitory concentration (IC50) is 4.4 µM.

On to `Cc1ccc(S(=O)(=O)n2ccc(OC(=O)c3cccs3)n2)cc1`, for which the IC50 was 8.39 µM.

`CCOC(=O)c1cccc(NC(=O)c2cc3ccccc3o2)c1`: the 50% inhibitory concentration (IC50) was 14.3 µM.

For `O=c1c2ccccc2nc(-c2ccc([N+](=O)[O-])cc2)n1O`, the IC50 was 7.67 µM.

As to `CCOC(=O)c1sc(=NC(=O)c2ccco2)n(C)c1C`, the IC50 is 14.1 µM.

In the case of `Nc1nc(-c2ccc(-c3ccccc3)cc2)cs1`, the concentration for half-maximal inhibition (IC50) was 14.9 µM.

Consider `O=C(Nc1ccc(-c2nc3ccccc3[nH]2)cc1)C1CCCO1` (stereo not drawn), for which the IC50 is 14.4 µM.

On to `CNC(=S)N/N=C/c1cc(Br)cc(Br)c1O`, for which the IC50 is 3.14 µM.

Take `N#C/C(=C\c1cc(Cl)cc(Cl)c1O)C(=O)NC1CCCCC1`: the IC50 is 10 µM.

Regarding `Cc1ccc(Nc2nc(-c3cccnc3)nc3ccccc23)cc1`, the half-maximal inhibitory concentration (IC50) is 5.21 µM.

As for `Cc1nc(Nc2ccccc2)sc1C(=O)Nc1ccccc1`, the IC50 was 14.6 µM.

For `COCCNC(=O)/C(C#N)=C/c1ccc(OCc2ccccc2)cc1`, the IC50 was 9.3 µM.

As for `C[C@@]12C(=O)Nc3ccc(Cl)cc3C(=O)N1[C@H]1c3ccccc3OC[C@@H]1[C@@H]2c1ccccc1`, the IC50 was 3.38 µM.

For `CCOc1cc(/C=C2\SC(N3CCCC(C)C3)=NC2=O)ccc1O` (stereo not drawn), the IC50 was 28.8 µM.

On to `Cc1ccc(SCC(=O)OCn2nnc3ccccc3c2=O)cc1C`, for which the IC50 is 9.99 µM.

Turning to `CCC(C)c1ccc(NC(=O)C2CC3CCC2C3)cc1` (stereo not drawn), the IC50 is 12.5 µM.

Turning to `O=C1/C(=C/c2ccncc2)SC(=S)N1C1CCCCC1`, the IC50 was 5.72 µM.

Consider `C/C(=N\Nc1cc(N2CCCCC2)nc(C)n1)c1ccc(Br)cc1`, for which the IC50 was 14.2 µM.

Consider `Brc1ccc(OCc2nnnn2-c2ccccc2)cc1`, for which the IC50 was 11.3 µM.

Turning to `Nc1cc([N+](=O)[O-])cc2oc(-c3ccccc3)cc12`, the IC50 was 13.1 µM.

With `CC1CCc2c(c3ccccc3n2C(=O)CCl)C1` (stereo not drawn), the IC50 is 3.68 µM.

Consider `CO/C(N)=C(\C#N)N=Cc1ccccc1Cl`, for which the concentration for half-maximal inhibition (IC50) was 8.6 µM.

`O=C(NCc1ccc2c(c1)OCO2)c1c(O)nc2sccn2c1=O`: the IC50 is 6.15 µM.

For `Cc1ccc(-c2nnc(N3CCN(c4ccccn4)CC3)c3ccccc23)cc1`, the IC50 was 7.64 µM.

Regarding `COc1cc(OC)cc(C(=O)Nc2ccc(Nc3ccccc3)cc2)c1`, the IC50 was 9.92 µM.

`Nc1ccc(O)c2c1C(=O)c1ccccc1C2=O`: the IC50 was 11.3 µM.

As to `C=C1CCc2c([nH]c3ccc(OCC(C)C)cc23)C1=O`, the 50% inhibitory concentration (IC50) is 3.33 µM.

As for `N=c1c2c(-c3ccccc3)c(-c3ccccc3)n(Cc3ccco3)c2ncn1Cc1ccco1`, the IC50 is 9.92 µM.

With `O=c1cc(C(Cl)(Cl)Cl)oc2c1ccc1ccccc12`, the IC50 is 2.2 µM.

As for `O=C(CSc1ccccc1)N/N=C/c1ccccc1O`, the IC50 is 27.5 µM.

For the compound `CC(C)N=c1scc(-c2ccco2)n1/N=C/c1ccc(O)c(O)c1`, the IC50 was 11.9 µM.

In the case of `Cc1nc2scc(C)n2c(=O)c1S(=O)(=O)Nc1ccc(N2CCOCC2)cc1`, the 50% inhibitory concentration (IC50) is 6.67 µM.

For `Cn1c(=O)c(C(=O)Nc2ncccn2)c(O)c2ccccc21`, the IC50 was 8.49 µM.

`O=C(Nc1ccc(Oc2cccc3ccccc23)cc1)c1ccco1`: the IC50 is 8.33 µM.

On to `CC(C)(C)c1csc(NC(=O)c2ccc(Cl)s2)n1`, for which the IC50 is 4.07 µM.

In the case of `OCCOCCNc1ncnc2c1c(-c1ccccc1)cn2-c1ccccc1`, the IC50 is 10.7 µM.

For `O=C(NC(=S)NC(=O)c1ccccc1F)c1ccccc1F`, the IC50 was 6.11 µM.

Consider `CC(/C=N/NC(=O)c1cccs1)=C\c1ccco1`, for which the IC50 was 24.3 µM.

For the compound `Cc1ccc(NC(=O)c2ccc3c(c2)OCCO3)cc1C`, the IC50 is 13 µM.

As to `COc1cc(C(=O)N/N=C/c2coc3ccc(Cl)cc3c2=O)ccc1O`, the IC50 is 4.34 µM.

In the case of `CCc1sc(C(=O)Nc2ccc3c(c2)OCO3)cc1C`, the IC50 is 19.2 µM.

As to `O=C1c2ccccc2C(=O)N1c1nc(-c2cccs2)cs1`, the IC50 is 3.63 µM.

As to `O=C(Nc1nccs1)c1ccc(Cl)s1`, the IC50 is 7.48 µM.

On to `O=C(CS(=O)(=O)c1ccccc1)Nc1nc(-c2ccc(F)cc2)cs1`, for which the IC50 was 14.2 µM.

Consider `CC1=C(C)/C(=N/OC(=O)c2cccc([N+](=O)[O-])c2)C=CC1=O`, for which the IC50 is 8.03 µM.

Turning to `Cc1nc2ccc(C(C(F)(F)F)(C(F)(F)F)C(F)(F)F)cc2[nH]1`, the IC50 was 5.02 µM.

For the compound `CC(C(Sc1ccccc1N)c1ccccc1)[N+](=O)[O-]` (stereo not drawn), the IC50 is 3.92 µM.

With `CCN(CC)c1ccc2c(C)c(-c3ccc(N)cc3)c(=O)oc2c1`, the half-maximal inhibitory concentration (IC50) is 13.9 µM.

Turning to `Cc1nc2ccccc2c(=O)n1/N=C/c1cc(Br)ccc1O`, the IC50 was 6.9 µM.

Regarding `O=C1Nc2ccccc2/C1=C/c1ccccc1Cl`, the IC50 is 7.21 µM.

Turning to `O=c1c(O)c(-c2ccccc2)oc2cc(O)cc(O)c12`, the IC50 was 8.56 µM.

Regarding `CC(C)CCN1C(=O)c2cccc3c(N)ccc(c23)C1=O`, the IC50 is 9.07 µM.

Consider `C/C(=N\Nc1nc2ccccc2s1)c1cccs1`, for which the IC50 was 9.27 µM.

As for `CCc1nc(SCc2ccccn2)c2c(=O)n(C)c(=O)n(C)c2n1`, the IC50 was 16.3 µM.

For `O=C(/C(=C/O)N=Nc1ccccc1)c1ccco1`, the IC50 was 10.7 µM.

`CCCN(C(=O)c1ccc([N+](=O)[O-])c(C)c1)c1c(N)n(Cc2ccccc2)c(=O)[nH]c1=O`: the IC50 is 5.69 µM.

With `O=Cc1sc(Nc2ccccc2)nc1Cl`, the IC50 is 11.7 µM.

For the compound `CCOC(=O)c1cccc(OC(=O)CCNC(=O)c2ccc(Cl)cc2)c1`, the IC50 was 13.1 µM.

`Oc1c(Cl)cc(Cl)cc1CNc1nccs1`: the IC50 was 15.3 µM.

Turning to `C=CCn1c(SCc2cc(=O)n3ccsc3n2)nc2cc(Cl)ccc2c1=O`, the IC50 was 6.15 µM.

Consider `O=c1oc(-c2ccc(Br)o2)nc2ccccc12`, for which the IC50 is 9.8 µM.

In the case of `Cc1ccc(-c2nc3ccccc3[nH]2)s1`, the IC50 was 6.19 µM.

On to `c1cnc2c(c1)ccc1cccnc12`, for which the IC50 is 9.59 µM.

`COC(=O)c1cccc(NC(=O)c2ccc(OC)c(Cl)c2)c1`: the 50% inhibitory concentration (IC50) was 20.6 µM.

Take `O=C(N/N=C/C=C\c1ccco1)c1cccs1`: the IC50 was 8.95 µM.

As to `CCC(C)NC(=O)c1c(N)n(CCCOC)c2nc3ccccc3nc12` (stereo not drawn), the IC50 was 14.1 µM.

As to `COc1ccc(NC(=O)Nc2cccc3cccnc23)cc1`, the IC50 was 40.1 µM.

In the case of `Cc1cccc(CN2C(=O)/C(=C\c3ccc(C(=O)NCCCN4CCN(C)CC4)cc3)Oc3ccccc32)c1`, the IC50 is 17.5 µM.

On to `O=C(Nc1ncc([N+](=O)[O-])s1)c1ccc2c(c1)OCO2`, for which the IC50 is 17.6 µM.

For `COc1ccc(O)c(-c2cc(-c3cccs3)[nH]n2)c1`, the IC50 was 12.4 µM.

Take `CCOC(=O)c1c(N)sc(C(=O)Nc2ccccc2)c1C`: the IC50 was 4.11 µM.

`O=C(CSc1nnnn1Cc1ccccc1)c1ccc(F)cc1`: the IC50 was 20 µM.

Regarding `Fc1ccccc1-c1cc2cc3c(cc2cn1)OCO3`, the IC50 is 16.1 µM.

`O=C(c1ccccc1)N1N=C(c2cccs2)CC1c1ccccc1O` (stereo not drawn): the IC50 is 22.8 µM.

With `Cc1ccc(NC(=O)c2nc(S(=O)(=O)Cc3ccccc3C)ncc2Cl)cc1C`, the IC50 is 3.72 µM.

For `O=[N+]([O-])c1cc(O)c2ncccc2c1`, the IC50 is 11.4 µM.

For `O=C(Nc1ccc(Br)c(Cl)c1)C1CC1`, the IC50 is 18.3 µM.

As to `CCOc1nc2ccccc2cc1C=O`, the IC50 is 3.43 µM.

As to `Cc1nc2scc(C)n2c(=O)c1S(=O)(=O)Nc1ccc(OC(F)(F)F)cc1`, the IC50 is 6.96 µM.

Consider `CCOC(=O)c1c(C)oc2c1c(C(c1cccnc1)N1CCCCC1)c(O)c1ccccc12` (stereo not drawn), for which the IC50 was 21.5 µM.

With `CCCCC(=O)Nc1ccc(NC(=O)c2cccs2)cn1`, the IC50 was 18.8 µM.

For the compound `CCOC(=O)CSc1c(-c2cccs2)[nH]c2ccccc12`, the IC50 was 15.2 µM.

Take `O=c1c2ccccc2[nH]c(=S)n1CCN1CCC(=C(c2ccc(F)cc2)c2ccc(F)cc2)CC1`: the IC50 was 5.44 µM.

Regarding `O=C(Nc1nsc(-c2ccccc2)n1)c1cccs1`, the IC50 was 8.04 µM.

As to `CCOC(=O)c1ccc(NC(=O)CSc2nc(=O)n3cccc(C)c3n2)cc1`, the IC50 is 13 µM.

With `Cc1ccc(-c2nn(-c3ccccc3)cc2NC(=O)CCl)cc1`, the concentration for half-maximal inhibition (IC50) is 4.31 µM.

For `O=C(Oc1cccc2c(O)cccc12)c1ccccc1`, the IC50 was 8.69 µM.

For `N#C/C(=C/c1ccc(N2CCOCC2)o1)c1nc2ccccc2[nH]1`, the IC50 is 7.2 µM.

Turning to `c1ccc(-c2ncc(-c3ccn[nH]3)s2)cc1`, the IC50 was 5.97 µM.

Regarding `COc1ccc2oc(/C=C/N(C)C)c(C(=O)c3ccc(Cl)cc3)c2c1`, the IC50 is 15 µM.

In the case of `COc1ccc(-c2nc3ccccc3[nH]2)cc1`, the IC50 was 18 µM.

On to `COC(=O)c1ccc(NC(=O)c2nc(S(=O)(=O)Cc3cccc(C)c3)ncc2Cl)cc1`, for which the IC50 is 1.09 µM.

In the case of `Cc1ccc(/C=N/NC(=O)c2ccc3c(c2)OCCO3)s1`, the IC50 was 34.6 µM.

On to `COc1ccc2c(c1)-c1nc(NC(=O)c3cccs3)sc1CC2`, for which the IC50 was 21.7 µM.

With `Cc1nc2c(n1C1CCCCC1)C(=O)c1ccccc1C2=O`, the IC50 was 10.8 µM.

With `O=C(N/N=C/c1ccc([N+](=O)[O-])s1)c1ccncc1`, the concentration for half-maximal inhibition (IC50) was 4.88 µM.

As to `CCOC(=O)C1=C(CSc2nc(CC)c(C)cc2C#N)OC(N)=C(C#N)C1c1ccc(OC)cc1` (stereo not drawn), the half-inhibitory concentration (IC50) was 17.8 µM.

Consider `Cc1cc(C)nc(SCC(=O)c2cc3ccccc3oc2=O)n1`, for which the IC50 was 9.91 µM.

For `COC(=O)N/N=C/c1ccc(-c2cc(Cl)cc(Cl)c2)o1`, the IC50 was 8.73 µM.
